The results in this text go back to patent publication US20080108067A1, “Cloning of the retinoic acid inducible gene-1 promoter and uses thereof” (priority 2004, published 2008).

The test relates to human RIG-1 promoter (RIG-PROM-LUC reporter). As to the kind of experiment: RIG-PROM-LUC luciferase reporter activity in response to inducers in transfected human cells. The class given is cell-based. On the technique in general: In a reporter assay the amount or activity of a reporter protein is the signal.

As to `CC1=C(/C=C/C(C)=C/C=C/C(C)=C/C(=O)O)C(C)(C)CCC1` [retinoic acid, all Trans-retinoic acid], for the setting “FM516 and HeLa cells, IFN-β induction greater than PolyIC:PolyIC and least with retinoic acid, FIG. 2”, the “activation of promoter activity (RIG-PROM-LUC)” value is “robust activation”. Moreover, the “response of reporter compared to untreated controls” value (depending on the cell line (FM516, T47D, HeLa, PHFA), inducer 6 h then overnight incubation) is “around 1.5 fold”.
